# Data from PMC11355573, “A New Renieramycin T Right-Half Analog as a Small Molecule Degrader of STAT3” (Marine Drugs, 2024).
# Columns and labels:
# [1] = target: T1, STAT3 (Homo sapiens, UniProt P40763); assay: STAT3 Western blot; assay type: cell-based; conditions: H460, 1 μM and 2.5 μM, 24 h (p < 0.05)
# T1 construct: endogenous in cells; host or cells: NCI-H460 (ATCC HTB-177)
# Protocol: These findings imply that DH_31 exerts its anticancer effects by modulating the expression and/or accumulation of STAT3.
# Western blot analysis was performed to detect and quantify specific proteins in a sample. H460 cells (4.0 × 10^5 cells per well) were seeded in 6 well plates. Following overnight incubation, the cells were treated with different concentrations of DH_31 (0–2.5 μM) for 24 h at 37 °C. After treatment, the cell lysates were isolated using a 1 × RIPA buffer containing a protease inhibitor cocktail for 45 min at 4 °C. The protein content was determined using the BCA protein assay kit. For the Western blot assay, an equal amount of the denatured proteins from cell lysates was separated by electrophoresis on 10 or 12% SDS-PAGE and transferred to 0.2 µm polyvinylidene difluoride (PVDF) membranes (Bio-Rad Laboratories, Hercules, CA, USA). After the membranes were blocked with 5% skim milk, they were then incubated overnight with specific primary antibodies at 4 °C. Subsequently, the membranes were incubated with HRP-conjugated secondary antibodies for 1 h at room temperature. Protein bands were visualized using SuperSignal^TM West Pico PLUS Chemiluminescent Substrate. The protein intensity was analyzed using ImageJ™ software (Image J 1.52a, Rasband, W., National Institutes of Health, Bethesda, MD, USA).
# [2] = tested on: H460 cells; assay: Wound healing assay (migration); assay type: cell-based, human; conditions: H460, 1 and 2.5 μM, at 48 h and 72 h, vs untreated cells
# Protocol: Wound healing assay was conducted to assess the effects of DH_31 on migration. H292 and H460 cells (4.0–4.2 × 10^4 cells per well) were seeded in 96-well plates. Following overnight incubation, wounds were created by scraping the monolayer cells with a 10 μL pipette tip, and non-adherent cells were washed off with PBS. The cells were treated with different concentrations of DH_31 (0–2.5 μM) in the growth medium containing 1% FBS for 72 h at 37 °C. […] The scratched area was analyzed by using ImageJ™ software (Image J 1.52a, Rasband, W., National Institutes of Health, Bethesda, MD, USA). Cell migration was determined by the rate of cells moving towards the scratched area.
# [3] = tested on: NSCLC cells (H292 and H460); assay: Hoechst 33342/PI staining, percentage of dead cells in NSCLC; assay type: cell-based, human; conditions: 10 μM, 24 h
# Protocol: Apoptosis is a crucial mechanism of cell death induced by anticancer drugs. We further analyzed the apoptosis induction effect of the potent small molecules, namely DH_28, DH_30, and DH_31. Nuclear morphology detected by the staining with nucleus-specific fluorescence dye Hoechst 33342 and cell-impermeable PI for necrotic detection was performed. Morphologic changes by means of condensed and/or fragmented nuclei were observed after 24 h of treatment (Figure 2D). […] Therefore, DH_31 was selected for further experiments.
# Figure 2 The effect of RT right-half analogs on cytotoxicity in NSCLC and human normal lung epithelial (BEAS-2B) cell lines and apoptotic cell death in NSCLC cells. (A) NSCLC H292 and H460 cells were treated with derivatives of RT right-half analogs for 24 h and analyzed using MTT assay to assess cytotoxicity. (B) IC50 values for H292 and H460 cell lines were calculated. (C) BEAS-2B cells were treated with DH_28, DH_30, DH_31, and TM-(−)-18 for 24 h. The cytotoxic effects were evaluated using an MTT assay, and the IC50 values for BEAS-2B cells were determined. (D) H292 and H460 cells were seeded and treated with 0–10 μM of DH_28, DH_30, and DH_31 for 24 h. Hoechst 33342 and PI were used to stain the cell nuclei. Images were obtained under a fluorescence microscope. (E) The percentages of cell death were calculated based on the stained images in H292 and H460 cells. […]
# T1 sequence (P40763 whole entry): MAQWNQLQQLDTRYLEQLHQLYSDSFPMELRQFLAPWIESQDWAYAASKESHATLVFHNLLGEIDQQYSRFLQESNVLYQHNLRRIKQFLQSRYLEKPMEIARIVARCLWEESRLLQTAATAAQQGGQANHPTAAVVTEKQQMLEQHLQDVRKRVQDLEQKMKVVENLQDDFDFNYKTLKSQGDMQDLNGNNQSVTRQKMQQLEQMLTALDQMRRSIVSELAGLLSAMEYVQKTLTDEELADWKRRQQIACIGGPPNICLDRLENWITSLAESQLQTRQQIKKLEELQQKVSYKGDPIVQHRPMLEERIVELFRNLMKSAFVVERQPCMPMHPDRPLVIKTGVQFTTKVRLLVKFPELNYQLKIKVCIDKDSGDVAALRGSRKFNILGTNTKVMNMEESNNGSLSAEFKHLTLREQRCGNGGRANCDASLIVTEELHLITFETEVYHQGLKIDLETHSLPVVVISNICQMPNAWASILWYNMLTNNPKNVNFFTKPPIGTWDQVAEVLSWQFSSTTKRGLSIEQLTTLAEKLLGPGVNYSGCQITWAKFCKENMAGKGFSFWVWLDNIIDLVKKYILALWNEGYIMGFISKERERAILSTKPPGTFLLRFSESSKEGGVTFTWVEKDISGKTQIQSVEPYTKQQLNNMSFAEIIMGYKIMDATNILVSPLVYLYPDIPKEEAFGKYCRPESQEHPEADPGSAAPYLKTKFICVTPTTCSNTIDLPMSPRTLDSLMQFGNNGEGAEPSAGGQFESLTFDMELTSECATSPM
compound,measurement,setting,value
"COc1c(C)cc2c(c1O)[C@@H]1CN(Cc3ccc4ccccc4c3)[C@@H](C#N)[C@H](C2)N1C [DH_31, (1R,4R,5S)-10-hydroxy-9-methoxy-8,11-dimethyl-3-(naphthalen-2-ylmethyl)-1,2,3,4,5,6-hexahydro-1,5-epiminobenzo[d]azocine-4-carbonitrile]",STAT3 protein level (Western blot),[1],significant decrease
same,cell migration across the wound space,[2],significantly decreased
same,dead cells in NSCLC,[3],34–66%
